Assay results reported in PubChem BioAssay AID248 (DTP/NCI, 2004).
Inconclusive results and toxic doses are left out.

System: L1210 leukemia ip in BDF1 mice, survival T/C
Experiment: NCI In Vivo Anticancer Drug Screen. Data for tumor model L1210 Leukemia (intraperitoneal) in B6D2F1 (BDF1) mice
Conditions: endpoint: mean survival time, higher = longer survival
In short: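 Transplanted-tumor mice were given test agent; controls received vehicle only. Survival readings from the two groups were divided (treated over control).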

[1] = dose: 400.0 mg/kg/injection, schedule: Q01DX001 (ip), vehicle: saline
[2] = dose: 400.0 mg/kg/injection, schedule: Q01DX009 (ip), vehicle: saline

Structure (SMILES): O=C(c1ccccc1)N(Nc1ccccc1)c1ccccc1
- T/C (dose: 50.0 mg/kg/injection, schedule: Q01DX009 (ip), vehicle: Klucel (hydroxypropylcellulose) (HPC)): 94 % of control
- T/C (dose: 100.0 mg/kg/injection, schedule: Q01DX009 (ip), vehicle: Klucel (hydroxypropylcellulose) (HPC)): 97 % of control
- T/C (dose: 100.0 mg/kg/injection, schedule: Q04DX003 (ip), vehicle: Klucel (hydroxypropylcellulose) (HPC)): 98 % of control
- T/C (dose: 200.0 mg/kg/injection, schedule: Q01DX009 (ip), vehicle: Klucel (hydroxypropylcellulose) (HPC)): 97 % of control
- T/C (dose: 200.0 mg/kg/injection, schedule: Q04DX003 (ip), vehicle: Klucel (hydroxypropylcellulose) (HPC)): 93 % of control
- T/C (dose: 400.0 mg/kg/injection, schedule: Q01DX009 (ip), vehicle: Klucel (hydroxypropylcellulose) (HPC)): 89 % of control
- T/C (dose: 400.0 mg/kg/injection, schedule: Q04DX003 (ip), vehicle: Klucel (hydroxypropylcellulose) (HPC)): 98 % of control

Structure (SMILES): Cc1cc(O)c(C)c2c1CC[C@H]1[C@@H]2OC(=O)[C@@H]1C
- T/C (dose: 100.0 mg/kg/injection, schedule: Q01DX001 (ip), vehicle: other): 98 % of control
- T/C (dose: 200.0 mg/kg/injection, schedule: Q01DX001 (ip), vehicle: other): 92 % of control
- T/C (dose: 400.0 mg/kg/injection, schedule: Q01DX001 (ip), vehicle: other): 97 % of control

Structure (SMILES): O=c1ccnc(-c2ccccc2)[nH]1
- T/C (dose: 100.0 mg/kg/injection, schedule: Q04DX002 (ip), vehicle: Klucel (hydroxypropylcellulose) (HPC)): 119 % of control
- T/C (dose: 200.0 mg/kg/injection, schedule: Q04DX002 (ip), vehicle: Klucel (hydroxypropylcellulose) (HPC)): 119 % of control
- T/C (dose: 400.0 mg/kg/injection, schedule: Q04DX002 (ip), vehicle: Klucel (hydroxypropylcellulose) (HPC)): 114 % of control

Structure (SMILES): C=CCc1ccc(C)c(C)c1O
- T/C (dose: 100.0 mg/kg/injection, schedule: Q01DX009 (sc), vehicle: olive oil, sesame oil, peanut oil): 101 % of control
- T/C (dose: 100.0 mg/kg/injection, schedule: Q04DX003 (sc), vehicle: olive oil, sesame oil, peanut oil): 99 % of control
- T/C (dose: 200.0 mg/kg/injection, schedule: Q01DX009 (sc), vehicle: olive oil, sesame oil, peanut oil): 101 % of control
- T/C (dose: 200.0 mg/kg/injection, schedule: Q04DX003 (sc), vehicle: olive oil, sesame oil, peanut oil): 97 % of control
- T/C (dose: 400.0 mg/kg/injection, schedule: Q01DX009 (sc), vehicle: olive oil, sesame oil, peanut oil): 101 % of control
- T/C (dose: 400.0 mg/kg/injection, schedule: Q04DX003 (sc), vehicle: olive oil, sesame oil, peanut oil): 91 % of control

Structure (SMILES): Clc1ccccc1CSc1ncnc2nc[nH]c12
- T/C (dose: 16.0 mg/kg/injection, schedule: Q01DX Z (ip), vehicle: other): 96 % of control
- T/C (dose: 31.0 mg/kg/injection, schedule: Q01DX Z (ip), vehicle: other): 106 % of control
- T/C (dose: 40.0 mg/kg/injection, schedule: Q01DX009 (ip), vehicle: saline): 120 % of control
- T/C (dose: 62.0 mg/kg/injection, schedule: Q01DX Z (ip), vehicle: other): 112 % of control
- T/C (dose: 70.0 mg/kg/injection, schedule: Q01DX009 (ip), vehicle: saline): 110 % of control
- T/C (dose: 187.0 mg/kg/injection, schedule: Q01DX Z (ip), vehicle: other): 150 % of control
- T/C (dose: 265.0 mg/kg/injection, schedule: Q01DX001 (ip), vehicle: acetone): 124 % of control
- T/C (dose: 265.0 mg/kg/injection, schedule: Q01DX001 (ip), vehicle: saline): 107 % of control
- T/C (dose: 300.0 mg/kg/injection, schedule: Q01DX009 (ip), vehicle: acetone): 94 % of control
- T/C (dose: 300.0 mg/kg/injection, schedule: Q01DX009 (ip), vehicle: saline): 123 % of control
- T/C (dose: 375.0 mg/kg/injection, schedule: Q01DX Z (ip), vehicle: other): 103 % of control
- T/C [1]: 110 % of control
- T/C [2]: 115 % of control
- T/C (dose: 450.0 mg/kg/injection, schedule: Q01DX009 (ip), vehicle: acetone): 91 % of control
- T/C (dose: 500.0 mg/kg/injection, schedule: Q01DX Z (ip), vehicle: other): 86 % of control

Structure (SMILES): CCCCCCCCCC(=O)N1C(C)CCCC1C (configuration not stated)
- T/C (dose: 100.0 mg/kg/injection, schedule: Q04DX002 (ip), vehicle: saline): 94 % of control
- T/C (dose: 200.0 mg/kg/injection, schedule: Q04DX002 (ip), vehicle: saline): 105 % of control
- T/C (dose: 400.0 mg/kg/injection, schedule: Q04DX002 (ip), vehicle: saline): 105 % of control

Structure (SMILES): C=CC1CC[N-]CC1.C=CC1CC[N-]CC1.C=CC1CC[N-]CC1.[Cl][Cr]([Cl])[Cl]
- T/C (dose: 25.0 mg/kg/injection, schedule: Q01DX009 (ip), vehicle: saline): 97 % of control
- T/C (dose: 50.0 mg/kg/injection, schedule: Q01DX009 (ip), vehicle: saline): 94 % of control

Structure (SMILES): CCN(CC)CCCNC(c1ccc(OC)c(OC)c1)C(Cl)(Cl)Cl (configuration not stated)
- T/C (dose: 75.0 mg/kg/injection, schedule: Q01DX001 (ip), vehicle: saline): 98 % of control
- T/C (dose: 150.0 mg/kg/injection, schedule: Q01DX001 (ip), vehicle: saline): 91 % of control

Structure (SMILES): CCCCC(C=NCC(CCCC)(CCN1CCOCC1)c1cccc2ccccc12)(CCN1CCOCC1)c1cccc2ccccc12 (configuration not stated)
- T/C (dose: 100.0 mg/kg/injection, schedule: Q01DX009 (ip), vehicle: saline): 100 % of control
- T/C (dose: 200.0 mg/kg/injection, schedule: Q01DX009 (ip), vehicle: saline): 96 % of control
- T/C [2]: 88 % of control

Structure (SMILES): O=c1[nH]cccc1CC(O)(c1ccccc1)c1ccccc1
- T/C (dose: 100.0 mg/kg/injection, schedule: Q01DX001 (ip), vehicle: saline): 101 % of control
- T/C (dose: 200.0 mg/kg/injection, schedule: Q01DX001 (ip), vehicle: saline): 103 % of control
- T/C [1]: 100 % of control
